In ChEMBL document CHEMBL1773053, “Immunosuppressive but non-LasR-inducing analogues of the Pseudomonas aeruginosa quorum-sensing molecule N-(3-oxododecanoyl)-l-homoserine lactone” (J Med Chem, 2011):

Legend:
[1] = target: T1, Transcriptional activator protein LasR (Pseudomonas aeruginosa (strain ATCC 15692 / PAO1 / 1C / PRS 101 / LMG12228)) (UniProt P25084); assay: Induction of lasR-mediated quorum sensing in Pseudomonas aeruginosa PAKR02 harboring lasB::luxCDABE gene assessed as lasR-induction ratio at 10^-4 M after 24 hrs by bioluminescence assay relative to control
T1 sequence (whole entry): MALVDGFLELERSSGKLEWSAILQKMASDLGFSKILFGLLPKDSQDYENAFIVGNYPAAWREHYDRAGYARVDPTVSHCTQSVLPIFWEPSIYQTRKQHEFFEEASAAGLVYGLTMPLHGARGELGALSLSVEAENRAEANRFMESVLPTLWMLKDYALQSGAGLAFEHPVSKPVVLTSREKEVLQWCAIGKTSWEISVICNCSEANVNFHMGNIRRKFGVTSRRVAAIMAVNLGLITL

[2] = target: T1, Transcriptional activator protein LasR (Pseudomonas aeruginosa (strain ATCC 15692 / PAO1 / 1C / PRS 101 / LMG12228)); assay: Inhibition of OdDHL-induced LasR activation in Pseudomonas aeruginosa PAKR02 harboring lasB::luxCDABE gene assessed as remaining Las activity at 10^-4 M after 24 hrs by bioluminescence assay
[3] = system: Jurkat; assay: Cytotoxicity against human Jurkat E6-1 cells assessed as cell viability after 24 hrs by trypan blue exclusion assay; format: cell-based; conditions: for EC50: Homo sapiens, Jurkat; for Activity: human, jurkat
[4] = Immunosuppressive activity in mouse concanavalin A-stimulated peripheral blood leukocyte assessed as inhibition of leukocyte proliferation by [3H]thymidine incorporation assay; format: functional

Row | Compound | Ratio [1] | Activity [2] [%] | EC50 [3] [µM] | EC50 [4] [µM] | Activity [3]
1 | CCCCCCCCN(C)C(=O)CC(=O)N[C@H]1CCOC1=O | 0.91 | 60 | > 1000 | 22 | 
2 | CCCCCCCCCN(O)CC(=O)N[C@H]1CCOC1=O | 0.99 | 69 | 400 | 13 | 
3 | CCCCCCCCNS(=O)(=O)CC(=O)N[C@H]1CCOC1=O | 1.02 | 101 | 900 | 13 | 
4 | CCCCCCCCNC(=O)CC(=O)Nc1cc(Cl)ccc1O | 0.62 | 66 | > 1000 | 9.3 | 
5 | CCOCCOCCNC(=O)CC(=O)N[C@@H]1CCC[C@@H]1O | 1.03 | 89 | 700 | 192 | 
6 | CCCCCCCCCC(=O)CC(=O)Nc1nccs1 | 0.87 | 51 | 800 | 25 | 
7 | CCCCCCCCN(CCO)C(=O)CC(=O)N[C@H]1CCOC1=O | 1.01 | 16 | 300 | 41 | 
8 | CCCCCCCCCN(N)CC(=O)N[C@H]1CCOC1=O | 1.03 | 55 | 410 | 8.9 | 
9 | CCCCCCCCCSCC(=O)N[C@H]1CCOC1=O | 0.9 | 51 | > 1000 | > 1000 | 
10 | CCCCCCCCNC(=O)C(F)(F)C(=O)N[C@H]1CCOC1=O |  | 6 | > 1000 | 97 | 
11 | CCCCCCCCN(CCC)C(=O)CC(=O)N[C@H]1CCOC1=O | 0.99 | 101 | 200 | 28 | 
12 | CCCCCCCCNC(=O)CC(=O)Nc1cccc(C(N)=O)c1 | 0.81 | 59 | 700 | 15 | 
13 | CCCCCCCCNC(=O)CC(=O)N[C@@H]1CCC[C@@H]1O | 0.96 | 55 | 400 | 43 | 
14 | CCCCCCCCNC(=O)CC(=O)N[C@H]1CCOC1=O | 1.06 | 20 | 200 | 35 | 
15 | CCCCCCCCCC(CC(=O)N[C@H]1CCOC1=O)OC(C)=O (mixture of isomers) | 1.13 | 70 | 120 | 5.2 | 
16 | CCCCCCCCC[S+]([O-])CC(=O)N[C@H]1CCOC1=O (some centres undefined) |  |  | 720 | 27 | 
17 | CCCCCCCCNC(=O)CS(=O)(=O)N[C@H]1CCOC1=O | 1.04 | 86 | 220 | 9.1 | 
18 | CCCCCCCCNC(=O)CC(=O)NC1CCCCCC1 | 0.9 | 19 | 78 | 14 | 
19 | CCCCCCCCNC(=O)C(F)C(=O)N[C@H]1CCOC1=O (some centres undefined) | 0.91 | 57 | 800 | 26 | 
20 | CCCCCCCCNC(=O)CC(=O)Nc1ccccc1O | 0.79 | 29 | > 1000 | 22 | 

Row | Compound | Ratio [1] | Activity [2] [%] | EC50 [3] [µM] | EC50 [4] [µM] | Activity [3]
21 | CCCCCCCCNC(=O)CC(=O)N[C@@H]1CCCC[C@@H]1O | 0.92 | 45 | 400 | 32 | 
22 | CCCCCCCCCN(CC(=O)N[C@H]1CCOC1=O)OCc1ccccc1 |  |  | 63 | 17 | 
23 | CCCCCCCCNC(=O)CC(=O)Nc1ccccn1 | 0.91 | 41 | > 1000 | 18 | 
24 | CCCCCCCCOC(=O)CC(=O)N[C@H]1CCOC1=O | 1.18 | 46 | 500 | 37 | 
25 | CCCCOCCCNC(=O)CC(=O)N[C@H]1CCOC1=O | 0.97 | 108 | > 1000 | 101 | 
26 | CCOCCOCCNC(=O)CC(=O)N[C@H]1CCOC1=O | 1.02 | 61 | > 1000 | > 1000 | 
27 | CCCCCCCCCCCS(=O)(=O)CC(=O)N[C@H]1CCOC1=O | 0.75 | 76 | 170 | 8.3 | 
28 | CCCCCCCCC/C(O)=C1/C(=O)N[C@@H](CCO)C1=O | 0.96 | 21 | 52 | 29 | 
29 | CCCCCCCCCCC[S+]([O-])CC(=O)N[C@H]1CCOC1=O (some centres undefined) | 0.77 | 63 | 45 | 8.2 | 
30 | CCCCCCCCNC(=O)CC(=O)Nc1ccc2[nH]ncc2c1 | 1.1 | 62 | > 1000 | 55 | 
31 | CCCCCCCCNC(=O)CC(=O)Nc1ccccc1C(=O)N(C)C | 0.91 | 37 | 160 | 22 | 
32 | CCCCCCCCCNC(=O)CC(=O)N[C@H]1CCOC1=O | 1.01 | 3.4 | 530 | 23 | 
33 | CCCCCCCCCC(=O)CC(=O)N[C@H]1CCC(=O)NC1=O | 1.03 | 71 |  | 77 | Non-toxic
34 | CCCCCCCCCC(=O)CC(=O)N[C@H]1CCOC1=O | 12.3 |  | 250 | 21 | 
35 | CCCCCCCCCS(=O)(=O)CC(=O)N[C@H]1CCOC1=O | 0.92 | 72 | 200 | 31 | 
36 | CCCCCCCCNC(=O)CC(=O)Nc1ccccc1C(N)=O | 0.8 | 23 | 120 | 25 | 
37 | CCCCOCCCNC(=O)CC(=O)N[C@@H]1CCC[C@@H]1O | 0.94 | 111 | > 1000 | 160 | 
38 | CCCCCCCCCC(=O)CC(=O)N[C@H]1CC(=O)NC1=O | 1.04 | 82 |  | > 1000 | Non-toxic
39 | CCCCCCCCCCCNC(=O)CC(=O)N[C@H]1CCOC1=O | 0.72 | 14 | 140 | 12 | 
40 | CCCCCCCCNC(=O)CC(=O)Nc1nccs1 | 0.9 | 64 | 600 | 27 | 
